Measurements as given in patent US9616129B2, “Compositions and methods for potentiating immune response, enhancing immunotherapy, and increasing vaccine potency” (Nitor Therapeutics, priority 2013, dated 2017).

Tests used:
Assay type in all cases: cell-based
[1] = biological target: T1, human TLR8 (Homo sapiens, UniProt Q9NR97); experiment: TLR ligand screening, NF-κB SEAP reporter in HEK293 cells expressing TLR8; conditions: one concentration: NTR001 10 uM, Inosine 100 uM; FIG. 2
T1 construct: expressed in transfected cells; host or cells: HEK293
T1 sequence (Q9NR97 27-1041): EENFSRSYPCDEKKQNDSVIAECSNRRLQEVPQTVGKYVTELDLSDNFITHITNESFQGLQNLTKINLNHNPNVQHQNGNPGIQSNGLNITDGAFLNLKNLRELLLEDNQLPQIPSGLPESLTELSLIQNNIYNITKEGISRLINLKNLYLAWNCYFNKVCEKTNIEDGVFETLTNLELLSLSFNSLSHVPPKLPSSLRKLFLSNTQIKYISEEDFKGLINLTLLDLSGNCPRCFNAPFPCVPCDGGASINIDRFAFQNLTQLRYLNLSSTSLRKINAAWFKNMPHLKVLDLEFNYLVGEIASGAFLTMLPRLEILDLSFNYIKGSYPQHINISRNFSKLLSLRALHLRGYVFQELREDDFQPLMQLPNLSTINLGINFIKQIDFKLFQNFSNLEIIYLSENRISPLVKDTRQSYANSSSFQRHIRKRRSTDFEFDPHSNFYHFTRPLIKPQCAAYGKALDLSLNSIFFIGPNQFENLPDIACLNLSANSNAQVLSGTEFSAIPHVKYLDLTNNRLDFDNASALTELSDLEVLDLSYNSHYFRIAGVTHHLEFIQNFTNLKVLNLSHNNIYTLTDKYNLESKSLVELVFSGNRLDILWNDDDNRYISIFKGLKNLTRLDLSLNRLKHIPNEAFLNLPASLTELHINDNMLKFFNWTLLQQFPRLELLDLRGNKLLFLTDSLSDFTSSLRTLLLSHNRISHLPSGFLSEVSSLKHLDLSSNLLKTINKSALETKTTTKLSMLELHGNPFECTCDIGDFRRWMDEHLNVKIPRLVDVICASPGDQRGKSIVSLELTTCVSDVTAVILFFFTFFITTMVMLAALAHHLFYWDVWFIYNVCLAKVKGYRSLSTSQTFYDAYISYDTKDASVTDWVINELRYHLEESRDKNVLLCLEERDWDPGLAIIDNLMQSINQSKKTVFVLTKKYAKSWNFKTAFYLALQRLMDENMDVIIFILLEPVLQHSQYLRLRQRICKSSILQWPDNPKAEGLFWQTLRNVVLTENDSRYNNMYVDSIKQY
Protocol: (§1) TLR stimulation is tested by assessing NF-κB activation in HEK293 cells expressing a given TLR. The Secreted Embryonic Alkaline Phosphatase (SEAP) reporter is under the control of a promoter inducible by the transcription factor NF-κB. This reporter gene allows the monitoring of signaling through the TLR, based on the activation of NF-κB. The compounds are evaluated at one concentration and compared to control ligands. This step is performed in triplicate.

[2] = biological target: T2, human TLR4 (Homo sapiens, UniProt O00206); experiment: TLR ligand screening, NF-κB SEAP reporter in HEK293 cells expressing TLR4; conditions: one concentration: Guanosine 100 uM, NTR001 10 uM, Inosine 100 uM; FIG. 2
T2 construct: expressed in transfected cells; host or cells: HEK293
T2 sequence (O00206 24-839): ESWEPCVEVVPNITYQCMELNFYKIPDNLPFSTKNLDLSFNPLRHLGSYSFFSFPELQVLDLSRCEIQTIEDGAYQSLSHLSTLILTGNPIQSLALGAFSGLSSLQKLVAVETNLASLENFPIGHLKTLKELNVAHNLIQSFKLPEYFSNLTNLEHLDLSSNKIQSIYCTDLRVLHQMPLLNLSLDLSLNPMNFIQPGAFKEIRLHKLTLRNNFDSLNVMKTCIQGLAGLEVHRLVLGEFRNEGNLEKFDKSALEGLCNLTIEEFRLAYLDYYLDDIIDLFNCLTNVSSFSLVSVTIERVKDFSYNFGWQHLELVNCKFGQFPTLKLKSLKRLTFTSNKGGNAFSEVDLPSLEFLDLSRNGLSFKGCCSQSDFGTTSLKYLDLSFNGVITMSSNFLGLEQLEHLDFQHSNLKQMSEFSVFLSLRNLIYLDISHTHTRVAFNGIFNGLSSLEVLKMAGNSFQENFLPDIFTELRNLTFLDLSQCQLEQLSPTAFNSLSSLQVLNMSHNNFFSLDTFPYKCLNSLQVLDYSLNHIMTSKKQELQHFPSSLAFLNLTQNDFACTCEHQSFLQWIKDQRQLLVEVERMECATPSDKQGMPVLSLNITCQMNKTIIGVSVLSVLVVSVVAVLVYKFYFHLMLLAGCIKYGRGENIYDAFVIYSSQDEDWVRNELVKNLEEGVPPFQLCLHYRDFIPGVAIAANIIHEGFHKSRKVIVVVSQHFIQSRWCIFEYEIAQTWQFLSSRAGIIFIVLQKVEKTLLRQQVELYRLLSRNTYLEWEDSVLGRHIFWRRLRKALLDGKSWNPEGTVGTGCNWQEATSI
T2 sequence (Q9Y6Y9 17-160 partner limits assumed): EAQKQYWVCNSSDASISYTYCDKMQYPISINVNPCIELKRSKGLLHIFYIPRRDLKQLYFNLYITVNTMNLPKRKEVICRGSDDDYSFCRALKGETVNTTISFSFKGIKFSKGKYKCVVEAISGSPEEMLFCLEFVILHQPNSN
Protocol: as §1

[3] = biological target: T3, human TLR2 (Homo sapiens, UniProt O60603); experiment: TLR ligand screening, NF-κB SEAP reporter in HEK293 cells expressing TLR2; conditions: one concentration: Guanosine 100 uM, NTR001 10 uM, Inosine 100 uM; FIG. 2
T3 construct: expressed in transfected cells; host or cells: HEK293
T3 sequence (O60603 21-784): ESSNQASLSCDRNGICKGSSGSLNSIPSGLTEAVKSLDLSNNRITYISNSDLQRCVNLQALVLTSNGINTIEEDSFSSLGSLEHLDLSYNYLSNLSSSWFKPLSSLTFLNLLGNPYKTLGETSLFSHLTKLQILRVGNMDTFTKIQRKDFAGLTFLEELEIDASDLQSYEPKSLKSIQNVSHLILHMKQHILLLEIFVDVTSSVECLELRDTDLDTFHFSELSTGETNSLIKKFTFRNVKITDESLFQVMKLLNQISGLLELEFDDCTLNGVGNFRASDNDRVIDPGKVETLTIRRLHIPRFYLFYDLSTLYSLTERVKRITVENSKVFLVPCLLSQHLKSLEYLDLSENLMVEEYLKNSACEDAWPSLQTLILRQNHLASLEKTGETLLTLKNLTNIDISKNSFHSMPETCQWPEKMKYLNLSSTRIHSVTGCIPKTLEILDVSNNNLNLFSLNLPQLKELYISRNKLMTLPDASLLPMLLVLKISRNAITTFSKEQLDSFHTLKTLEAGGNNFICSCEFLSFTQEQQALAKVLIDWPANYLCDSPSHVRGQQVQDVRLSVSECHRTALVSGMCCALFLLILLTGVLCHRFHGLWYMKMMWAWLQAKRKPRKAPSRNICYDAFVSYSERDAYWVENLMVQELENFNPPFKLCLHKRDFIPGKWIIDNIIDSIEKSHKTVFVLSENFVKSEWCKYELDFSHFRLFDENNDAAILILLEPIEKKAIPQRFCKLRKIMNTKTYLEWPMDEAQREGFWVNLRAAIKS
Protocol: as §1

[4] = biological target: T4, human TLR7 (Homo sapiens, UniProt Q9NYK1); experiment: TLR ligand screening, NF-κB SEAP reporter in HEK293 cells expressing TLR7; conditions: one concentration: NTR001 10 uM, Inosine 100 uM; FIG. 2
T4 construct: expressed in transfected cells; host or cells: HEK293
T4 sequence (Q9NYK1 27-1049): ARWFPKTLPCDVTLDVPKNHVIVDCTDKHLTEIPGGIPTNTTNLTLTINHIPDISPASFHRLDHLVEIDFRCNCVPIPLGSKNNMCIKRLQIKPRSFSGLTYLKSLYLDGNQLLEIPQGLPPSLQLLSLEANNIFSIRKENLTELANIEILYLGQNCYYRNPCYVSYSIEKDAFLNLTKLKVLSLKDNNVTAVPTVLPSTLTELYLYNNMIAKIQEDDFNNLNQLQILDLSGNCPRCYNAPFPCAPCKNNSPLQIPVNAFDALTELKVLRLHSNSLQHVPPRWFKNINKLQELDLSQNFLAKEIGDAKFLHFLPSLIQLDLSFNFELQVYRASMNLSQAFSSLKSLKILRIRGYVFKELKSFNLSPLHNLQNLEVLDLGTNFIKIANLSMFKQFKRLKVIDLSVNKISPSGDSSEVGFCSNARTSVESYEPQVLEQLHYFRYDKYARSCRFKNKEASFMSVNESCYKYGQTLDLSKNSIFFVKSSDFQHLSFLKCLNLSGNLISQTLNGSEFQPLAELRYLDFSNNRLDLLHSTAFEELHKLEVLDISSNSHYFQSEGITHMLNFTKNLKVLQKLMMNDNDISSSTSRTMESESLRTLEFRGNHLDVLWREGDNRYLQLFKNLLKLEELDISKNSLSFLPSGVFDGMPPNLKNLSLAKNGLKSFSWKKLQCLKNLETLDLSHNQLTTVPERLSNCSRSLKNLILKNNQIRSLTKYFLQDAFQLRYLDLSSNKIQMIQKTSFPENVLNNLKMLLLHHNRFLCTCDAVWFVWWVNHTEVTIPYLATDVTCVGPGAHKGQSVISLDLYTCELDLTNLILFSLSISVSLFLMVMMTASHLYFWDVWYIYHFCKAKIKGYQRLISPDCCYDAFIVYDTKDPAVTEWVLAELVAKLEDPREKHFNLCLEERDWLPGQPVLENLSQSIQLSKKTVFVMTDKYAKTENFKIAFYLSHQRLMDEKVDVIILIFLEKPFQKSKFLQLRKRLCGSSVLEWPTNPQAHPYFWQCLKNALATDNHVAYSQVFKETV
Protocol: as §1

[5] = biological target: T5, human TLR5 (Homo sapiens, UniProt O60602); experiment: TLR ligand screening, NF-κB SEAP reporter in HEK293 cells expressing TLR5; conditions: one concentration: NTR001 10 uM, Inosine 100 uM; FIG. 2
T5 construct: expressed in transfected cells; host or cells: HEK293
T5 sequence (O60602 21-858): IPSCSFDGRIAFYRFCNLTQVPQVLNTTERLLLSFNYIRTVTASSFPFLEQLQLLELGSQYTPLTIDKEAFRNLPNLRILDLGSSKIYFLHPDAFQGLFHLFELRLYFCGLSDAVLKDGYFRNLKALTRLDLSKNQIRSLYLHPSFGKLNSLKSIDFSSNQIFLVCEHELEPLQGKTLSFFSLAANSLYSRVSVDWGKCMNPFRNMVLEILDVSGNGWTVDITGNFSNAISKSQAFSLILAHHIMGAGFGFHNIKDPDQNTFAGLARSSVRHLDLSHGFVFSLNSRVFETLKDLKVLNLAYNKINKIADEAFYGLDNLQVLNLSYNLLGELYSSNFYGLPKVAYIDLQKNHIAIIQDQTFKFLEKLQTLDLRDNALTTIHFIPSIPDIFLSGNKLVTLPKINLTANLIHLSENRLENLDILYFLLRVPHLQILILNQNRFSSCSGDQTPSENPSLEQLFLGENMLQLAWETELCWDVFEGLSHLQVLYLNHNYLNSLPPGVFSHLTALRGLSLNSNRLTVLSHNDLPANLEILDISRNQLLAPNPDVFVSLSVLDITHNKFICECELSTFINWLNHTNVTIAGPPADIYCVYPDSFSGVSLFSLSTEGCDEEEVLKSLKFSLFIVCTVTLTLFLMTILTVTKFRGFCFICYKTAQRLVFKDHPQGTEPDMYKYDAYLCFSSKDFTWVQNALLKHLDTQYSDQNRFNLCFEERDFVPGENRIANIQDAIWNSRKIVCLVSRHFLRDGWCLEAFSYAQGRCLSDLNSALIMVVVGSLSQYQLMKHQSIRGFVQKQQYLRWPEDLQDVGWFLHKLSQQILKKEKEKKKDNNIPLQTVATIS
Protocol: as §1

SMILES	stimulatory effect on human TLR8 (NF-κB activation) [1]	stimulatory effect on human TLR4 (NF-κB activation) [2]	stimulatory effect on human TLR2 (NF-κB activation) [3]	stimulatory effect on human TLR7 (NF-κB activation) [4]	stimulatory effect on human TLR5 (NF-κB activation) [5]
OC[C@H]1O[C@@H](n2cnc3c(O)ncnc32)[C@H](O)[C@@H]1O [Inosine]	do not exhibit a stimulatory effect	do not exhibit a stimulatory effect	do not exhibit a stimulatory effect	do not exhibit a stimulatory effect	do not exhibit a stimulatory effect
O=c1[nH]cnc2c([C@@H]3N[C@H](CO)[C@@H](O)[C@H]3O)c[nH]c12 [NTR001, 7-[(2S,3S,4R,5R)-3,4-dihydroxy-5-(hydroxymethyl)-2-pyrrolidinyl]-1,5-dihydro-4H-pyrrolo[3,2-d]pyrimidin-4-one]	do not exhibit a stimulatory effect	do not exhibit a stimulatory effect	do not exhibit a stimulatory effect	do not exhibit a stimulatory effect	do not exhibit a stimulatory effect
